Laboratory results taken from paper PMC9919311, “Catechol-O-methyltransferase Inhibitors from Calendula officinalis Leaf” (Molecules, 2023).
Read-outs that look alike come from different tables or passages of the source.

Key:
Recombinant human COMT = target: T1, Recombinant human COMT (Homo sapiens, UniProt P21964); assay: COMT inhibitory assay (3-BTD fluorescent substrate); format: biochemical
T1 construct: made in house
T1 sequence (P21964 1-271): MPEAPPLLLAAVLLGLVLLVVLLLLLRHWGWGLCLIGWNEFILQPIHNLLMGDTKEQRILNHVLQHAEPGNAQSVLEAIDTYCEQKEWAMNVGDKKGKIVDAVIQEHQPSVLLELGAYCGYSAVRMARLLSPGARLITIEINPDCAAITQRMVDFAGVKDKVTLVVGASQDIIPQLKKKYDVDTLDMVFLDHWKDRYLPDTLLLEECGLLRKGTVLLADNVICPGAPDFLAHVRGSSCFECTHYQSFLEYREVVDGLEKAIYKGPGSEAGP

[1] = cited from earlier work
[2] = 1 µM COMT, 200 µM SAM, 20 µM 3-BTD, 0–100 µM inhibitor, pH 7.5, 37 °C, read-out: COMT inhibitory activities (IC50)

Compound	IC50 (Recombinant human COMT; [2])	also measured
COc1cc(-c2oc3cc(O)cc(O)c3c(=O)c2O[C@@H]2O[C@H](CO)[C@@H](O)[C@H](O)[C@H]2O)ccc1O [Compound 2, isorhamnetin 3-O-β-glucoside]	55 µM	–
CC1OC(OC2C(Oc3c(-c4ccc(O)c(O)c4)oc4cc(O)cc(O)c4c3=O)OC(CO)C(O)C2O)C(O)C(O)C1O (stereo not drawn) [Compound 3, quercetin 3-O-β-neohesperidoside]	–	IC50 (Recombinant human COMT): 71 µM
CC1OC(OC2C(Oc3c(-c4ccc(O)c(O)c4)oc4cc(O)cc(O)c4c3=O)OC(COC(=O)CC(=O)O)C(O)C2O)C(O)C(O)C1O (stereo not drawn) [Compound 4, quercetin 3-O-(2″-O-α-rhamnosyl-6″-O-malonyl)-β-glucoside]	65 µM	–
O=C(O)CC(=O)OC[C@H]1O[C@@H](Oc2c(-c3ccc(O)c(O)c3)oc3cc(O)cc(O)c3c2=O)[C@H](O)[C@@H](O)[C@@H]1O [Compound 5, quercetin 3-O-(6″-O-malonyl)-β-glucoside]	59 µM	–
COC(=O)CC(=O)OC[C@H]1O[C@@H](Oc2c(-c3ccc(O)c(O)c3)oc3cc(O)cc(O)c3c2=O)[C@H](O)[C@@H](O)[C@@H]1O [Compound 6]	42 µM	–
COc1cc(-c2oc3cc(O)cc(O)c3c(=O)c2O[C@@H]2O[C@H](COC(=O)CC(=O)O)[C@@H](O)[C@H](O)[C@H]2O)ccc1O [Compound 7, isorhamnetin 3-O-(6″-O-malonyl)-β-glucoside]	> 100 µM	–
O=C(/C=C/c1ccc(O)c(O)c1)O[C@@H]1C[C@](O)(C(=O)O)C[C@@H](O)[C@H]1O [Compound 8, chlorogenic acid]	100 µM	–
O=C(C=Cc1ccc(O)c(O)c1)OC1CC(O)(C(=O)O)CC(O)C1OC(=O)C=Cc1ccc(O)c(O)c1 (centres unmarked) [Compound 9, 3,4-dicaffeoylquinic acid]	21 µM	COMT inhibitory activity (in words) (Recombinant human COMT; isolated compounds 1–10 compared): highest inhibitory activity
COc1cc(C(=O)O)cc(OC)c1O [Compound 10, syringic acid]	> 100 µM	–
Cc1ccc(C(=O)c2cc(O)c(O)c([N+](=O)[O-])c2)cc1 [Tolcapone]	–	hepatotoxicity [1]: severe hepatotoxicity
